What was measured:
Format in all cases: biochemical
HCMV polymerase = target: T1, HCMV polymerase (Human cytomegalovirus, UniProt P08546); assay: HCMV polymerase assay (scintillation proximity assay, modified version); conditions: modified SPA assay, compounds diluted in 100% DMSO, 4.5 mM DTT
T1 construct: made in house; host or cells: recombinant baculovirus-infected SF-9 cells
Protocol: (§1) The HCMV polymerase assay is performed using a scintillation proximity assay (SPA) as described in several references, such as N. D. Cook, et al., Pharmaceutical Manufacturing International, pages 49-53 (1992); K. Takeuchi, Laboratory Practice, September issue (1992); U.S. Pat. No. 4,568,649 (1986); which are incorporated by reference herein. Reactions are performed in 96-well plates. The assay is conducted in 100 μl volume with 5.4 mM HEPES (pH 7.5), 11.7 mM KCl, 4.5 mM MgCl2, 0.36 mg/ml BSA, and 90 nM ^3H-dTTP. Assays are run with and without CHAPS, (3-[(3-Cholamidopropyl)-dimethylammonio]-1-propane-sulfonate) at a final concentration of 2 mM. HCMV polymerase is diluted in enzyme dilution buffer containing 50% glycerol, 250 mM NaCl, 10 mM HEPES (pH 7.5), 100 μg/ml BSA, and 0.01% sodium azide. The HCMV polymerase, which is expressed in recombinant baculovirus-infected SF-9 cells and purified according to literature procedures, is added at 10% (or 10 μl) of the final reaction volume, i.e., 100 μl. Compounds are diluted in 50% DMSO and 10 μl are added to each well. Control wells contain an equivalent concentration of DMSO. Unless noted otherwise, reactions are initiated via the addition of 6 nM biotinylated poly(dA)-oligo(dT) template/primer to reaction mixtures containing the enzyme, substrate, and compounds of interest. Plates are incubated in a 25 C or 37 C H2O bath and terminated via the addition of 40 μl/reaction of 0.5 M EDTA (pH 8) per well. Reactions are terminated within the time-frame during which substrate incorporation is linear and varied depending upon the enzyme and conditions used, i.e., 30 min. for HCMV polymerase. Ten μl of streptavidin-SPA beads (20 mg/ml in PBS/10% glycerol) are added following termination of the reaction. Plates are incubated 10 min. at 37 C, then equilibrated to room temperature, and counted on a Packard Topcount. Linear regressions are performed and IC50's are calculated using computer software.
A modified version of the above HCMV polymerase assay is performed as described above, but with the following changes: Compounds are diluted in 100% DMSO until final dilution into assay buffer. In the previous assay, compounds are diluted in 50% DMSO. 4.5 mM dithiotherotol (DTT) is added to the polymerase buffer. […] Other viral polymerase assays are performed using procedures similar to those described above.

VZV polymerase = VZV polymerase (Varicella-zoster virus, UniProt P09252); assay: VZV polymerase assay (similar procedure)
Protocol: as §1, with “Unless noted otherwise, reactions are initiated via the addition of 6 nM biotinylated poly(dA)-oligo(dT) template/primer to reaction mixtures containing the enzyme, substrate, and compounds of interest. Plates are incubated in a 25 C or 37 C H2O bath and terminated via the addition of 40 μl/reaction of 0.5 M EDTA (pH 8) per well. Reactions are terminated within the time-frame during which substrate incorporation is linear and varied depending upon the enzyme and conditions used, i.e., 30 min. for HCMV polymerase. Ten μl of streptavidin-SPA beads (20 mg/ml in PBS/10% glycerol) are added following termination of the reaction.” left out, “software. […]” for “software.”

HSV polymerase = HSV polymerase (Human herpesvirus 1, UniProt P04293); assay: HSV polymerase assay (similar procedure)
Protocol: as §1, with “Unless noted otherwise, reactions are initiated via the addition of 6 nM biotinylated poly(dA)-oligo(dT) template/primer to reaction mixtures containing the enzyme, substrate, and compounds of interest. Plates are incubated in a 25 C or 37 C H2O bath and terminated via the addition of 40 μl/reaction of 0.5 M EDTA (pH 8) per well. Reactions are terminated within the time-frame during which substrate incorporation is linear and varied depending upon the enzyme and conditions used, i.e., 30 min. for HCMV polymerase. Ten μl of streptavidin-SPA beads (20 mg/ml in PBS/10% glycerol) are added following termination of the reaction.” left out, “software. […]” for “software.”

T1 sequence (P08546 whole entry): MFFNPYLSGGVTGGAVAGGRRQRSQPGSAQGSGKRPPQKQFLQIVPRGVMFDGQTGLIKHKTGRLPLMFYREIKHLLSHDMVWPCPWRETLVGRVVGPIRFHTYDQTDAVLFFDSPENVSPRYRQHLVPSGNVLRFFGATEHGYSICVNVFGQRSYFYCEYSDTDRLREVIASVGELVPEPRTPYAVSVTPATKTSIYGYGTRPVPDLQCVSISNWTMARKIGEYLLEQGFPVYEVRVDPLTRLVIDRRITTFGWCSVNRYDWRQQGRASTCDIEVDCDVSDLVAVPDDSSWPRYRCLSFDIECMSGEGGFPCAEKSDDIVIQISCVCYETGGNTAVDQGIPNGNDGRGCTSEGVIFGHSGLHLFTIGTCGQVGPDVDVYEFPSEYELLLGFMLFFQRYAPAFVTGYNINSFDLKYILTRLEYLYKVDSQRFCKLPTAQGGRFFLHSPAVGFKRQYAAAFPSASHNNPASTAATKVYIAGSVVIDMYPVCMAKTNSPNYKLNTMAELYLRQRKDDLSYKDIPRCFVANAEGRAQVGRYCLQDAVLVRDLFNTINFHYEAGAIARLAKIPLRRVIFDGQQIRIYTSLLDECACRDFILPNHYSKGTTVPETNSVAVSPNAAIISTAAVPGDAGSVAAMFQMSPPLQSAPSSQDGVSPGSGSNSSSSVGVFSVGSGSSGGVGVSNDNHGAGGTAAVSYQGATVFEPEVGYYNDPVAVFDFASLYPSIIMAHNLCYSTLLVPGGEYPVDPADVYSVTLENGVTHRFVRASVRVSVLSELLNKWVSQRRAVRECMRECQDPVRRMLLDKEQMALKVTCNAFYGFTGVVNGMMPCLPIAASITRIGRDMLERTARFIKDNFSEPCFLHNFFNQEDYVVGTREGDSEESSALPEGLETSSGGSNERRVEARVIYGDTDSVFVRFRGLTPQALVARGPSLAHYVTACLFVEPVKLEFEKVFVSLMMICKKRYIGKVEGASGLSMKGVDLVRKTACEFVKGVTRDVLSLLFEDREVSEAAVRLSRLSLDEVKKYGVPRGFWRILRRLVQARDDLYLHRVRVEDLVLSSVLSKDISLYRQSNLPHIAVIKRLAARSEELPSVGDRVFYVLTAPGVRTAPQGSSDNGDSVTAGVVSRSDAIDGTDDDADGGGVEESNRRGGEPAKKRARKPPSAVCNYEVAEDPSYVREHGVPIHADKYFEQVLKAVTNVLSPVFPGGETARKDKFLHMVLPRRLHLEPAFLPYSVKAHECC
Sequence of VZV polymerase (P09252 whole entry): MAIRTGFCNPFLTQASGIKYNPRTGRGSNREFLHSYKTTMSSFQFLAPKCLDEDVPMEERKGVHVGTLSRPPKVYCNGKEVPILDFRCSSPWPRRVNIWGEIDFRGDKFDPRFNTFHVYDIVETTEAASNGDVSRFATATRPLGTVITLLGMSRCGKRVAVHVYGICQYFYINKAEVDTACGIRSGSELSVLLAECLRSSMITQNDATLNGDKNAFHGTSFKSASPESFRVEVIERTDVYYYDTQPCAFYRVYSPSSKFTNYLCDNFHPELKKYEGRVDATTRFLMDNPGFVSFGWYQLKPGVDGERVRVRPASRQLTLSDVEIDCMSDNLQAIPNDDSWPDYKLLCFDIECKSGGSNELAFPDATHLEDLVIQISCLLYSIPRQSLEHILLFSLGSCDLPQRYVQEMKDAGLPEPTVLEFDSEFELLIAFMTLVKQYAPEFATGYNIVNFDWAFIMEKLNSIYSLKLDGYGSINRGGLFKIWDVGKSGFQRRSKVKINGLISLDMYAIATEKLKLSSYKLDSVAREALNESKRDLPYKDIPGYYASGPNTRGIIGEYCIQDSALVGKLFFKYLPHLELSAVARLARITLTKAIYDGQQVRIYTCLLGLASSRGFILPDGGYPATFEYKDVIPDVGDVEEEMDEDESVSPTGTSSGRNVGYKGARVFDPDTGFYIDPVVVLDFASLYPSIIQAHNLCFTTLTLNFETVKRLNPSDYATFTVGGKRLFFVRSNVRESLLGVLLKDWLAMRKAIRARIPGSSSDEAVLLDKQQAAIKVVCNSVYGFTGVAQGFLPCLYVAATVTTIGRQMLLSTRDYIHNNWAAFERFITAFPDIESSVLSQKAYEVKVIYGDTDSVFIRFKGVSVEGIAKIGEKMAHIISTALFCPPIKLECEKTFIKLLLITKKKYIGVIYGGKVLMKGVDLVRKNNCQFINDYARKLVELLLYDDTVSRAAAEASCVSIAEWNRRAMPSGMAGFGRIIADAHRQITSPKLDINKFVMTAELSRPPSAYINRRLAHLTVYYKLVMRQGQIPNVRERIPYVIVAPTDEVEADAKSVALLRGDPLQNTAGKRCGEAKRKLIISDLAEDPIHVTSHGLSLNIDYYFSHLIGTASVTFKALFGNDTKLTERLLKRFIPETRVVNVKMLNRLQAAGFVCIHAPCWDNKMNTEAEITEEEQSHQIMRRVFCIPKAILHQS
Sequence of HSV polymerase (P04293 whole entry): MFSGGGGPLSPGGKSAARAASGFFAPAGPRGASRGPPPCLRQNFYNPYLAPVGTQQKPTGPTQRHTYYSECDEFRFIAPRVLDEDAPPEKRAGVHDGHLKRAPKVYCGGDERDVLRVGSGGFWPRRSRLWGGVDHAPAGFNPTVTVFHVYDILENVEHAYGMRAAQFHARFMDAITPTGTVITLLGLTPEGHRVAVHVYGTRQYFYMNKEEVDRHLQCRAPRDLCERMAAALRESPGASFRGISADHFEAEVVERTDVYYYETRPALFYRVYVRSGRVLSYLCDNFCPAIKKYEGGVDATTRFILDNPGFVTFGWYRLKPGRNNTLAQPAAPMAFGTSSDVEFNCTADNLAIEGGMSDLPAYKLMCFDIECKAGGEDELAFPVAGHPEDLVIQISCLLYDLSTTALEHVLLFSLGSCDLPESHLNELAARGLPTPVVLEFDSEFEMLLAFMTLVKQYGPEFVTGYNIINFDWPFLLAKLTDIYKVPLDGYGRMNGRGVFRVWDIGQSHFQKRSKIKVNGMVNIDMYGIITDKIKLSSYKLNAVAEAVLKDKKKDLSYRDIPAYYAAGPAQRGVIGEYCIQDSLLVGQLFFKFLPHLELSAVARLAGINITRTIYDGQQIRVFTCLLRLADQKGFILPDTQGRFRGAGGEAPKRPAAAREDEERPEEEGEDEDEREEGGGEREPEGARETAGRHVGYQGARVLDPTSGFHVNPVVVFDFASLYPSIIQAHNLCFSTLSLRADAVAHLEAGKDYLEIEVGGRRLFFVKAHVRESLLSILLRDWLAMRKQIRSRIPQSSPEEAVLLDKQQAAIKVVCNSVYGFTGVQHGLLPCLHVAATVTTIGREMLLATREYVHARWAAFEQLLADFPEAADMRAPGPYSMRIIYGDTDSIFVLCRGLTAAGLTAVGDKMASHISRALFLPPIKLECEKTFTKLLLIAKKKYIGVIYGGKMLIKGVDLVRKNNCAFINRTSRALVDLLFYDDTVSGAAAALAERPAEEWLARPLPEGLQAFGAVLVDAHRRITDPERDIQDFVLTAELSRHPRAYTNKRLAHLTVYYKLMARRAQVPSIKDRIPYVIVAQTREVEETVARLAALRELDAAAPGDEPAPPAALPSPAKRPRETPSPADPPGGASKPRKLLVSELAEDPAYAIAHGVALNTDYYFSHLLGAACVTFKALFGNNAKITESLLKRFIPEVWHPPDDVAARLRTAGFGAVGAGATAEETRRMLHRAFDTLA

IC50 (HCMV polymerase) | IC50 (VZV polymerase) | IC50 (HSV polymerase) | SMILES
480 nM | – | – | O=C(NCc1ccc(Cl)cc1)c1cn2c3c(cc(CN4CCOCC4)cc3c1=O)OCC2 [Example 1, N-(4-Chlorobenzyl)-9-(4-morpholinylmethyl)-7-oxo-2,3-dihydro-7H-[1,4]oxazino[2,3,4-ij]quinoline-6-carboxamide]
1200 nM | – | – | O=C(NCc1ccc(Cl)cc1)c1cn2c3c(cc(C#CCO)cc3c1=O)OCC2 [Example 2, N-(4-Chlorobenzyl)-9-(3-hydroxy-1-propynyl)-7-oxo-2,3-dihydro-7H-[1,4]oxazino[2,3,4-ij]quinoline-6-carboxamide]
1800 nM | – | – | CCCc1cc2c3c(c1)c(=O)c(C(=O)NCc1ccc(Cl)cc1)cn3CCO2 [Example 3B, N-(4-Chlorobenzyl)-7-oxo-9-propyl-2,3-dihydro-7H-[1,4]oxazino[2,3,4-ij]quinoline-6-carboxamide]
< 310 nM | 210 nM | 440 nM | O=C(NCc1ccc(Cl)cc1)c1cn2c3c(cc(CCCO)cc3c1=O)OCC2 [Example 3A, N-(4-Chlorobenzyl)-9-(3-hydroxypropyl)-7-oxo-2,3-dihydro-7H-[1,4]oxazino[2,3,4-ij]quinoline-6-carboxamide]

Source: US6340680B1, “Oxazinoquinolones useful for the treatment of viral infections” (Pharmacia and Upjohn Company, priority 1999, dated 2002)
